Source: patent publication US9993494B2, “Compositions and methods for treating fibrotic disease” (eFFECTOR Therapeutics, Inc., priority 2014, dated 2018)

Tested on: normal human lung fibroblasts
Experiment: Ribosomal profiling: translational efficiency in TGFβ-treated fibroblasts
Assay type: cell-based
Conditions: TGFβ-treated fibroblasts
Procedure, shortened: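 Cells lysed on ice after a cold PBS wash containing cycloheximide. Ribosome-protected fragments and total mRNA were prepared with the ARTseq kit and sequenced by RNA-Seq. Reads were trimmed, mapped to the human genome and counted uniquely over coding regions per gene, with low-count genes excluded before differential translational-efficiency analysis.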

Compound: Cc1cc(C2CCCCC2)n(O)c(=O)c1.NCCO [CPX, ciclopirox oloamine]
- renormalizing the translational profile of RPL9 (ENSG00000163682): − (− = <0.9)
- renormalizing the translational profile of RHOBTB3 (ENSG00000164292): − (− = <0.9)
- renormalizing the translational profile of RPL36AL (ENSG00000165502): − (− = <0.9)
- renormalizing the translational profile of RPL27A (ENSG00000166441): − (− = <0.9)
- renormalizing the translational profile of RP11-382A20.3.1 (ENSG00000166503): − (− = <0.9)
- renormalizing the translational profile of ANKDD1A (ENSG00000166839): − (− = <0.9)
- renormalizing the translational profile of RPL13 (ENSG00000167526): − (− = <0.9)
- renormalizing the translational profile of EEF2 (ENSG00000167658): − (− = <0.9)
- renormalizing the translational profile of CA5B (ENSG00000169239): − (− = <0.9)
- renormalizing the translational profile of KIAA1024 (ENSG00000169330): − (− = <0.9)
- renormalizing the translational profile of MURC (ENSG00000170681): − (− = <0.9)
- renormalizing the translational profile of HTRA3 (ENSG00000170801): − (− = <0.9)
- renormalizing the translational profile of PDE7B (ENSG00000171408): − (− = <0.9)
- renormalizing the translational profile of LPAR3 (ENSG00000171517): − (− = <0.9)
- renormalizing the translational profile of CTPS (ENSG00000171793): − (− = <0.9)
- renormalizing the translational profile of QARS (ENSG00000172053): − (− = <0.9)
- renormalizing the translational profile of RPL38 (ENSG00000172809): − (− = <0.9)
- renormalizing the translational profile of MRPL45 (ENSG00000174100): − (− = <0.9)
- renormalizing the translational profile of RPL4 (ENSG00000174444): − (− = <0.9)
- renormalizing the translational profile of RPL15 (ENSG00000174748): − (− = <0.9)
- renormalizing the translational profile of DES (ENSG00000175084): − (− = <0.9)
- renormalizing the translational profile of EIF3F (ENSG00000175390): − (− = <0.9)
- renormalizing the translational profile of CLCF1 (ENSG00000175505): − (− = <0.9)
- renormalizing the translational profile of AMIGO3 (ENSG00000176020): − (− = <0.9)
- renormalizing the translational profile of C14orf49 (ENSG00000176438): − (− = <0.9)
- renormalizing the translational profile of RPLP2 (ENSG00000177600): − (− = <0.9)
- renormalizing the translational profile of IMPDH2 (ENSG00000178035): − (− = <0.9)
- renormalizing the translational profile of DNAJC22 (ENSG00000178401): − (− = <0.9)
- renormalizing the translational profile of RPL35A (ENSG00000182899): − (− = <0.9)
- renormalizing the translational profile of LENG9 (ENSG00000182909): − (− = <0.9)
- renormalizing the translational profile of C22orf32 (ENSG00000183172): − (− = <0.9)
- renormalizing the translational profile of PDE4B (ENSG00000184588): − (− = <0.9)
- renormalizing the translational profile of ROBO2 (ENSG00000185008): + (+ = 0.9 to 1.5)
- renormalizing the translational profile of PTCH1 (ENSG00000185920): − (− = <0.9)
- renormalizing the translational profile of POLR1D (ENSG00000186184): − (− = <0.9)
- renormalizing the translational profile of DYNC2H1 (ENSG00000187240): − (− = <0.9)
- renormalizing the translational profile of RPL14 (ENSG00000188846): − (− = <0.9)
- renormalizing the translational profile of LRRK2 (ENSG00000188906): − (− = <0.9)
- renormalizing the translational profile of NACA (ENSG00000196531): − (− = <0.9)
- renormalizing the translational profile of LAMB3 (ENSG00000196878): + (+ = 0.9 to 1.5)
- renormalizing the translational profile of PCBP2 (ENSG00000197111): − (− = <0.9)
- renormalizing the translational profile of MAP3K5 (ENSG00000197442): − (− = <0.9)
- renormalizing the translational profile of RPL37A (ENSG00000197756): − (− = <0.9)
- renormalizing the translational profile of RPL12 (ENSG00000197958): − (− = <0.9)
- renormalizing the translational profile of LPAR1 (ENSG00000198121): − (− = <0.9)
- renormalizing the translational profile of RPL23A (ENSG00000198242): − (− = <0.9)
- renormalizing the translational profile of PLN (ENSG00000198523): − (− = <0.9)
- renormalizing the translational profile of RPL10A (ENSG00000198755): − (− = <0.9)
- renormalizing the translational profile of CES1 (ENSG00000198848): + (+ = 0.9 to 1.5)
- renormalizing the translational profile of RPL39 (ENSG00000198918): − (− = <0.9)
- renormalizing the translational profile of CARD16 (ENSG00000204397): − (− = <0.9)
- renormalizing the translational profile of MICA (ENSG00000204520): − (− = <0.9)
- renormalizing the translational profile of GNB2L1 (ENSG00000204628): − (− = <0.9)
- renormalizing the translational profile of RPL17 (ENSG00000215472): − (− = <0.9)
- renormalizing the translational profile of RPL41 (ENSG00000229117): − (− = <0.9)
- renormalizing the translational profile of ARPC1A (ENSG00000241685): − (− = <0.9)
- renormalizing the translational profile of CHCHD10 (ENSG00000250479): − (− = <0.9)
- renormalizing the translational profile of EEF1G (ENSG00000254772): − (− = <0.9)
- number of genes whose translational efficiency was uniquely modulated by the compound (duplicate ribosomal profiles): six
- effect in renormalizing the translational profile of the gene (gene RPS2 (ENSG00000140988)): − (− = <0.9)
- effect in renormalizing the translational profile of the gene (gene RPS3 (ENSG00000149273)): − (− = <0.9)
- effect in renormalizing the translational profile of the gene (gene RPS3A (ENSG00000145425)): − (− = <0.9)
- effect in renormalizing the translational profile of the gene (gene RPS4X (ENSG00000198034)): − (− = <0.9)
- effect in renormalizing the translational profile of the gene (gene RPS4Y1 (ENSG00000129824)): − (− = <0.9)
- effect in renormalizing the translational profile of the gene (gene RPS5 (ENSG00000083845)): − (− = <0.9)
